Laboratory results reported in patent US4080471A, “Use of substituted isopropylaminopropanols for inducing inotropic effects of the human heart” (priority 1976, dated 1978).
“Also recorded” adds a separate entry of the source.

Columns and labels:
[1] = test system: cardiac beta-receptors; test: Chronotropic (heart frequency) and inotropic (maximum dP/dt) effects in reserpinized, anesthetized, vagotomized cat; format: in vivo
Protocol: Chronotropic (Heart Frequency) and Inotropic (Contractile Force) Effects
The mean blood pressure was regulated with an adjustable clamp around the descending aorta. All registrations were than able to be done at a constant pressure in aorta (afterload). The compounds were administered by infusion intravenously in increasing doses. The dose-response curves as regards the heart frequency and maximum dP/dt were constructed, from which the ED50 -values were estimated.
Maximum dP/dt is a measure of the contractile force of the heart, i.e. inotropy, but is influenced by changes in the heart frequency, filling pressure (preload) and aortic blood pressure (afterload). In this test, a comparison between inotropic and chronotropic effects can be done at the same heart frequency. Further, the aortic blood pressure is kept constant.

[2] = test system: heart; test: Effect on heart chronotropy and inotropy of a conscious dog
Excerpt: During anesthesia a catheter was introduced in the aorta, an electromagnetic flow probe was placed around the ascending aorta, and induction coils were placed diametrically on the inside of the left ventricle. The experiments were started about 2 weeks after the incision, when the dog had recovered completely.
When the dog was resting, the arterial blood pressure, the flow in the aorta, the maximum flow acceleration in the aorta (maximum dF/dt), heart frequency, the diameter of the left ventricle, and ECG were registered. The effects of compounds I and II were registered at 10, 20, and 30 minutes after administration. […] The compounds were given intravenously in the following doses. […] In order to eliminate vagal influence on the heart the dog was pretreated with methyl scopolamine 0.012 mg/kg bodyweight intramuscularily 20 minutes before the administration of the compounds. From the data giving the diameter of the left ventricle, the end diastolic volume was calculated according to E. W. Hawthorne. Mean ejection rate (ml/sec.) was calculated by dividing the stroke volume with the ejection time. […] The values given are the percentage changes after administration when the heart frequency has increased 10 beats per minute, values interpolated. […] In order to compare the inotropic effects of ouabain with those of the other compounds, the heart was stimulated in these experiments by electric pacing to a frequency which was 10 beats/minute above that registered before administration.
In order to investigate the absorption and duration of the effect, compounds I and II were given orally in an amount of 100 μg/kg bodyweight.

[3] = change i.v. at heart frequency +10 beats/min, interpolated, ouabain 30 μg/kg i.v., paced

CC(C)NCC(O)COc1ccc(O)cc1 (stereo not shown) [Compound I, 1-isopropylamino-3-(p-hydroxyphenoxy)-propanol-2]
auricle pressure (filling pressure) ([1]; cat, i.v. infusion): decreased
affinity to cardiac beta-receptors giving inotropic versus chronotropic effects (in words) ([1]; in vivo): higher affinity to cardiac beta-receptors, which give inotropic effects, than to beta-receptors in the sinus-node region, which give chronotropic effects
time of maximum effect, oral ([2]; 100 μg/kg bodyweight orally): 30 min
Enddiastolic volume ([2]; change i.v. at heart frequency +10 beats/min, interpolated, calculated from left ventricle diameter, ouabain 30 μg/kg i.v., paced): -9%
Stroke volume ([2]; change i.v. at heart frequency +10 beats/min, interpolated, methyl scopolamine pretreated, ouabain 30 μg/kg i.v., paced): 5%
Mean arterial blood pressure [2, 3]: 0 mm Hg
Peak aortic flow [2, 3]: 22%
Mean ejection rate ([2]; change i.v. at heart frequency +10 beats/min, interpolated, stroke volume / ejection time, ouabain 30 μg/kg i.v., paced): 13%
side effects ([2]; conscious dog, I and II 10 and 20 μg/kg, ouabain 30 μg/kg i.v.): No side effect was observed
contractility / inotropic effect in conscious dog (in words) ([2]; i.v.): clear inotropic effect without any significant increase of the heart frequency; also recorded: increases the contractility of the left ventricle
Max. dF/dt ([2]; maximum flow acceleration in aorta, change i.v. at heart frequency +10 beats/min, interpolated, ouabain 30 μg/kg i.v., paced): 43%
oral effect (in words) ([2]; oral, 100 μg/kg bodyweight): good inotropic effect when administered perorally and an acceptable duration of action; also recorded: comparable with those obtained after intravenous administration of 20 μg/kg bodyweight
positive inotropic effect compared with ouabain (in words) ([2]; versus relatively high dose of ouabain): quite comparable to the effect of a high dose of ouabain; also recorded: comparable to the effect of the relatively high dose of ouabain
